test system: YAP/TAZ-TEAD transcription; assay: Reporter gene assay for measuring the inhibition of YAP/TAZ-TEAD transcription (TEAD-responsive element luciferase reporter in Hek293T cells); format: cell-based; conditions: Homo sapiens, HEK-293T, 24 hours incubation
Experimental: Hek293T cells are cultured in DMEM supplemented with 10% fetal bovine serum, Sodium pyruvate, Sodium bicarbonate, L-glutamine. The cells are harvested and transiently transfected with TEAD-responsive element luciferase reporter. Transfected cells are plated in 384-wells plate containing pre-diluted compounds. After 24 hours incubation at 37° C./5% CO2, assay plates were cooled down to RT and levelled to an equal volume per well, prior to the addition of 25 uL luciferase substrate SteadyLite (Perkin Elmer)/well. The plate was shaken for 10 min at 600 rpm, centrifuged for 1 min at 500 rpm and measured with an Envision reader (PerkinElmer). The amount of relative light units produced by the TEAD reporter is used to calculated percent of inhibition.
The percent of reporter inhibition was calculated in the presence of a positive control inhibitor (100% inhibition) versus a condition with the presence of the vehicle basal activity of the reporter (0% inhibition). The ability of a test compound to inhibit this activity was determined as: Percentage inhibition=[1−((RLU determined in the presence of vehicle−RLU determined for sample with test compound present) divided by (RLU determined in the presence of vehicle−RLU determined for sample with positive control inhibitor))]*100
The activities of the example compounds tested are depicted in the table below. The activity ranges A, B and C refer to EC50 values in the reporter gene assay as described as follows: “A”: EC50<1 μM; “B”: 1 μM s EC50≤20 μM and “C”: EC50>20 μM, NT=not tested.

EC50 [µM] | SMILES
1 to 20 | c1ccc(-c2cccc(-c3ccn(CCN4CCOCC4)n3)c2)cc1 [compound 025, 4-(2-(3-([1,1′-biphenyl]-3-yl)-1H-pyrazol-1-yl)ethyl)morpholine]
> 20 | c1ccc(-c2cccc(-c3ccn(CC4CCOCC4)n3)c2)cc1 [compound 026, 3-([1,1′-biphenyl]-3-yl)-1-((tetrahydro-2H-pyran-4-yl)methyl)-1H-pyrazole]
1 to 20 | N#Cc1ccc(Cn2ccc(-c3cccc(-c4ccccc4)c3)n2)cn1 [compound 027, 5-((3-([1,1′-biphenyl]-3-yl)-1H-pyrazol-1-yl)methyl)picolinonitrile]
1 to 20 | NC(=O)c1ccc(Cn2ccc(-c3cccc(-c4ccccc4)c3)n2)cn1 [compound 028, 5-((3-([1,1′-biphenyl]-3-yl)-1H-pyrazol-1-yl)methyl)picolinamide]
1 to 20 | NCc1ccc(Cn2ccc(-c3cccc(-c4ccccc4)c3)n2)cn1 [compound 029, (5-((3-([1,1′-biphenyl]-3-yl)-1H-pyrazol-1-yl)methyl)pyridin-2-yl)methanamine]
1 to 20 | c1ccc(-c2cccc(-c3ccn(CC4CCNCC4)n3)c2)cc1 [compound 030, 4-((3-([1,1′-biphenyl]-3-yl)-1H-pyrazol-1-yl)methyl)piperidine]
1 to 20 | CC(=O)N1CCC(Cn2ccc(-c3cccc(-c4ccccc4)c3)n2)CC1 [compound 031, 1-(4-((3-([1,1′-biphenyl]-3-yl)-1H-pyrazol-1-yl)methyl)piperidin-1-yl)ethan-1-one]
1 to 20 | CN1CCC(Cn2ccc(-c3cccc(-c4ccccc4)c3)n2)CC1 [compound 032, 4-((3-([1,1′-biphenyl]-3-yl)-1H-pyrazol-1-yl)methyl)-1-methylpiperidine]
1 to 20 | C=Cc1ccc(Cn2ccc(-c3cccc(-c4ccccc4)c3)n2)cn1 [compound 033, 5-((3-([1,1′-biphenyl]-3-yl)-1H-pyrazol-1-yl)methyl)-2-vinylpyridine]
> 20 | Nc1ccc(Cn2ccc(-c3cccc(-c4ccccc4)c3)n2)cn1 [compound 034, 5-((3-([1,1′-biphenyl]-3-yl)-1H-pyrazol-1-yl)methyl)pyridin-2-amine]
1 to 20 | C=Cc1cc(Cn2ccc(-c3cccc(-c4ccccc4)c3)n2)ccn1 [compound 035, 4-((3-([1,1′-biphenyl]-3-yl)-1H-pyrazol-1-yl)methyl)-2-vinylpyridine]
1 to 20 | CNc1cc(Cn2ccc(-c3cccc(-c4ccccc4)c3)n2)ccn1 [compound 036, 4-((3-([1,1′-biphenyl]-3-yl)-1H-pyrazol-1-yl)methyl)-N-methylpyridin-2-amine]
1 to 20 | C=CC(=O)Nc1ccc(Cn2ccc(-c3cccc(-c4ccccc4)c3)n2)cn1 [compound 037, N-(5-((3-([1,1′-biphenyl]-3-yl)-1H-pyrazol-1-yl)methyl)pyridin-2-yl)acrylamide]
> 20 | O=C1CCN1c1ccc(Cn2ccc(-c3cccc(-c4ccccc4)c3)n2)cn1 [compound 038, 1-(5-((3-([1,1′-biphenyl]-3-yl)-1H-pyrazol-1-yl)methyl)pyridin-2-yl)azetidin-2-one]
1 to 20 | CCC(=O)Nc1ccc(Cn2ccc(-c3cccc(-c4ccccc4)c3)n2)cn1 [compound 039, N-(5-((3-([1,1′-biphenyl]-3-yl)-1H-pyrazol-1-yl)methyl)pyridin-2-yl)propionamide]
> 20 | O=C(O)c1cncc(Cn2ccc(-c3cccc(-c4ccccc4)c3)n2)c1 [compound 040, 5-((3-([1,1′-biphenyl]-3-yl)-1H-pyrazol-1-yl)methyl)nicotinic acid]
1 to 20 | NC(=O)c1cncc(Cn2ccc(-c3cccc(-c4ccccc4)c3)n2)c1 [compound 041, 5-((3-([1,1′-biphenyl]-3-yl)-1H-pyrazol-1-yl)methyl)nicotinamide]
> 20 | O=C(O)c1ccncc1Cn1ccc(-c2cccc(-c3ccccc3)c2)n1 [compound 042, 3-((3-([1,1′-biphenyl]-3-yl)-1H-pyrazol-1-yl)methyl)isonicotinic acid]
1 to 20 | NC(=O)c1ccncc1Cn1ccc(-c2cccc(-c3ccccc3)c2)n1 [compound 043, 3-((3-([1,1′-biphenyl]-3-yl)-1H-pyrazol-1-yl)methyl)isonicotinamide]

EC50 [µM] | SMILES
1 to 20 | c1ccc(Nc2cccc(-c3ccn(Cc4ccccn4)n3)c2)cc1 [compound 044, N-phenyl-3-(1-(pyridin-2-ylmethyl)-1H-pyrazol-3-yl) aniline]
1 to 20 | c1ccc(Nc2cccc(-c3ccn(Cc4cccnc4)n3)c2)cc1 [compound 045, N-phenyl-3-(1-(pyridin-3-ylmethyl)-1H-pyrazol-3-yl)aniline]
1 to 20 | c1ccc(Nc2cccc(-c3ccn(CCc4cccnc4)n3)c2)cc1 [compound 046, N-phenyl-3-(1-(2-(pyridin-3-yl)ethyl)-1H-pyrazol-3-yl)aniline]
1 to 20 | c1ccc(-c2cccc(-c3nnn(Cc4cccnc4)n3)c2)cc1 [compound 047, 3-((5-([1,1′-biphenyl]-3-yl)-2H-tetrazol-2-yl)methyl)pyridine]
1 to 20 | O=C(Cc1cccnc1)Nc1cccc(-c2ccccc2)c1 [compound 048, N—([1,1′-biphenyl]-3-yl)-2-(pyridin-3-yl)acetamide]
< 1 | CNS(=O)(=O)CCNc1ccc(-c2ccccc2)cc1-c1ccn(Cc2cccnc2)n1 [compound 050, N-methyl-2-((3-(1-(pyridin-3-ylmethyl)-1H-pyrazol-3-yl)-[1,1′-biphenyl]-4-yl)amino)ethane-1-sulfonamide]
> 20 | O=S1(=O)CCN(c2ccc(-c3ccccc3)cc2-c2ccn(Cc3cccnc3)n2)CC1 [compound 051, 4-(3-(1-(pyridin-3-ylmethyl)-1H-pyrazol-3-yl)-[1,1′-biphenyl]-4-yl)thiomorpholine 1,1-dioxide]
< 1 | CN(C)S(=O)(=O)CCNc1ccc(-c2ccccc2)cc1-c1ccn(Cc2cccnc2)n1 [compound 053, N,N-dimethyl-2-((3-(1-(pyridin-3-ylmethyl)-1H-pyrazol-3-yl)-[1,1′-biphenyl]-4-yl)amino)ethane-1-sulfonamide]
1 to 20 | O=S1(=O)CCN(c2cc(-c3ccccc3)cc(-c3ccn(Cc4cccnc4)n3)c2)CC1 [compound 055, 4-(5-(1-(pyridin-3-ylmethyl)-1H-pyrazol-3-yl)-[1,1′-biphenyl]-3-yl)thiomorpholine 1,1-dioxide]
< 1 | CNS(=O)(=O)CCNc1ccc(-c2ccccc2)cc1-c1ccn(C)n1 [compound 056, N-methyl-2-((3-(1-methyl-1H-pyrazol-3-yl)-[1,1′-biphenyl]-4-yl)amino)ethane-1-sulfonamide]
> 20 | Cn1ccc(-c2cc(-c3ccccc3)ccc2NCCS(=O)(=O)O)n1 [compound 057, 2-((3-(1-methyl-1H-pyrazol-3-yl)-[1,1′-biphenyl]-4-yl)amino)ethane-1-sulfonic acid]
< 1 | Cn1ccc(-c2cc(-c3ccccc3)ccc2NCCS(N)(=O)=O)n1 [compound 058, 2-((3-(1-methyl-1H-pyrazol-3-yl)-[1,1′-biphenyl]-4-yl)amino)ethane-1-sulfonamide]
< 1 | O=C(O)CCNc1ccc(-c2ccccc2)cc1-c1ccn(Cc2cccnc2)n1 [compound 059, 3-((3-(1-(pyridin-3-ylmethyl)-1H-pyrazol-3-yl)-[1,1′-biphenyl]-4-yl)amino)propanoic acid]
< 1 | CNC(=O)CCNc1ccc(-c2ccccc2)cc1-c1ccn(Cc2cccnc2)n1 [compound 060, N-methyl-3-((3-(1-(pyridin-3-ylmethyl)-1H-pyrazol-3-yl)-[1,1′-biphenyl]-4-yl)amino)propanamide]
> 20 | O=C(O)CCNc1cc(-c2ccccc2)cc(-c2ccn(Cc3cccnc3)n2)c1 [compound 061, 3-((5-(1-(pyridin-3-ylmethyl)-1H-pyrazol-3-yl)-[1,1′-biphenyl]-3-yl)amino)propanoic acid]
1 to 20 | CNC(=O)CCNc1cc(-c2ccccc2)cc(-c2ccn(Cc3cccnc3)n2)c1 [compound 062, N-methyl-3-((5-(1-(pyridin-3-ylmethyl)-1H-pyrazol-3-yl)-[1,1′-biphenyl]-3-yl)amino)propanamide]
< 1 | Cn1ccc(-c2cc(-c3ccccc3)ccc2NCCC(=O)O)n1 [compound 063, 3-((3-(1-methyl-1H-pyrazol-3-yl)-[1,1′-biphenyl]-4-yl)amino)propanoic acid]
< 1 | CNC(=O)CCNc1ccc(-c2ccccc2)cc1-c1ccn(C)n1 [compound 064, N-methyl-3-((3-(1-methyl-1H-pyrazol-3-yl)-[1,1′-biphenyl]-4-yl)amino)propanamide]
1 to 20 | CSCCNc1ccc(-c2ccccc2)cc1-c1ccn(Cc2cccnc2)n1 [compound 065, N-(2-(methylthio)ethyl)-3-(1-(pyridin-3-ylmethyl)-1H-pyrazol-3-yl)-[1,1′-biphenyl]-4-amine]

SMILES | EC50 [µM]
O=S(=O)(F)CCNc1ccc(-c2ccccc2)cc1-c1ccn(Cc2cccnc2)n1 [compound 049, 2-((3-(1-(pyridin-3-ylmethyl)-1H-pyrazol-3-yl)-[1,1′-biphenyl]-4-yl)amino)ethane-1-sulfonyl fluoride] | 1 to 20

Reference: patent US12552772B2, “2-pyrazole anilines and related analogs for inhibiting YAP/TAZ-TEAD” (KATHOLIEKE UNIVERSITEIT LEUVEN, priority 2021, dated 2026)
